{
  "source": "patent US20080113924A1",
  "about": "“Neuramindase Inhibitor” (priority 2004, published 2008)",
  "target": "T1, Neuraminidase (Derived from Vibrio cholerae) (Vibrio cholerae serotype O1, UniProt P0C6E9)",
  "T1 construct": "host or cells: Vibrio cholerae (printed as 'Vibro-Choralie')",
  "T1 sequence (P0C6E9 25-781)": "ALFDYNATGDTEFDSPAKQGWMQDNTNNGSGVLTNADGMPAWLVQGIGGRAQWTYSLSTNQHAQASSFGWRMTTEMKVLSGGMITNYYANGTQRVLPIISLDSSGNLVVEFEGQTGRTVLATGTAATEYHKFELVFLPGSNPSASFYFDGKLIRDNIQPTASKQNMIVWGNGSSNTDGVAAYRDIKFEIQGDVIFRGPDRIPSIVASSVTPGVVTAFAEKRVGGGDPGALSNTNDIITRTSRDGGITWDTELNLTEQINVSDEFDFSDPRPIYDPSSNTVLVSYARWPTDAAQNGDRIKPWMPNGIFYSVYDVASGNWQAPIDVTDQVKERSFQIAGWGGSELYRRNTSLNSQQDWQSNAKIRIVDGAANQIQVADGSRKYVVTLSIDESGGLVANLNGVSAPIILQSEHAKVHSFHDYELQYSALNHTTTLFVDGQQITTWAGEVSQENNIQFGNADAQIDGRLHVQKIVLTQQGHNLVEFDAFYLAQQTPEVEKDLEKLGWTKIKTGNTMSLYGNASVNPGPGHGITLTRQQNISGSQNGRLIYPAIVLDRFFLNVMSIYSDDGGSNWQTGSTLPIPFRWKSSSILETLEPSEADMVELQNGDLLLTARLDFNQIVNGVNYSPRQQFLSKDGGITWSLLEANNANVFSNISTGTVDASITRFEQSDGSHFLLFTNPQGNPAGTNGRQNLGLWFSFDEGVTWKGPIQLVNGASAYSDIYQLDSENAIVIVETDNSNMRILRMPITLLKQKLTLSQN",
  "test": "Inhibition activity against neuraminidase (pre-incubation, p-nitrophenyl-α-N-acetyl neuraminic acid hydrolysis, absorbance 405 nm)",
  "assay_type": "biochemical",
  "details": "irreversible inhibitor; pre-incubation 0, 10 or 30 min with 0-0.5 mM, pH 5.0; calculated from inhibition curve (FIG. 3); read-out: inhibition constant (Ki)",
  "procedure": "Neuraminidase (50 μg) produced by Vibro-Choralie was pre-incubated in 50 mM phosphoric acid-tartaric acid buffer (pH 5.0, 10 μ1) together with the compound 6 (0, 0.05, 0.1, 0.2, and 0.5 mM), after 0, 10 or 30 minutes, 2 μl of the reaction solution was fractionated, respectively. The fractionated and pre-incubated solution was immediately incubated for 5 minutes in 50 mM phosphoric acid-tartaric acid buffer (pH 5.0, 50 μl) using 5 mM p-nitrophenyl-α-N-acetyl neuraminic acid. Then, glycine buffer (pH 11.0, […]) was added to each fractionated solution to stop the reaction. The amount of p-nitrophenol produced by hydrolysis reaction of neuraminidase was calculated by absorbance determination at 405 nm.",
  "data": [
    {"compound": "CC(=O)NC1C(O)CC(Oc2ccc(NS(=O)(=O)c3cccc4c(N(C)C)cccc34)cc2C(F)F)(C(=O)O)OC1C(O)C(O)CO", "note": "(stereo not shown) [compound 6]", "values": [
      {"measurement": "Ki", "result": 1.9, "unit": "mM"}
    ]}
  ]
}
